# From patent US20260000642A1 (Tay Therapeutics Limited, priority 2022, published 2026)
# Several values for one entry are separate records, joined by “and”; a condition that tells them apart may be missing. Identical values can stand only once.
# Tested on: collagen-induced arthritis in Lewis rats
# Experiment: Collagen-induced arthritis (CIA) model in rats: body weight, paw volume, clinical scores, clinical observations
# Conditions: for Animal body weight percent change / Animal body weight: Group 5 (CIA + Example 101 3 mg/kg)
# [1] = Day 1, individual animals, 3 mg/kg
# [2] = Day 3, individual animals, 3 mg/kg
# [3] = Day 7, individual animals, 3 mg/kg
# Protocol: Prior to be randomly placed in treatment groups, animals were weighed, and paw volume was measured. Once randomly assigned to treatment groups, on Day 0, animals in groups 2-9 were immunized by subcutaneous injection at the base of the tail. The immunization comprised 100 μL of the CFA+Collagen emulsion (prepared according to the method in Experimental Method A). Animals in group one received no immunization. Seven days after the first injection, animals in groups 2-9 received a booster immunization comprising 200 μL of the IFA+Collagen emulsion (prepared according to the method in Experimental Method A).
# Starting on Day 0, animals in group 1 and 2 were administered daily doses of the vehicle per os (P.O.) for 21 days.
# The twice daily doses for animals in groups 4-9 were 8 hours apart (e.g., the first dose at 8:00 AM and the second dose at 4:00 PM).
# Body weight of all animals was recorded daily for the 21-day period. Blind clinical scores on all four limbs were conducted for all animals in the study. Animals were assessed prior to receiving their first dose of the compound or control, and scores for each limb were combined to a total daily score for each animal. Clinical score assessments were performed on Day 0, 6, 12, 13, 14, 15, 18, 19, and 21 (for a total of 9 daily scores).
# Paw volume was recorded for each animal on Day 0, 6, 12, 13, 14, 15, 18, 19, and 21 (for a total of 9 measurements). To measure paw volume, animals were gently held with one hand while the hind paw was placed into a plethysmometer with the other hand. Lipid displacement by the paw was recorded and used to represent paw volume.
# At the conclusion of the study (end of the 21-day period), animals were euthanized. Euthanasia occurred four hours after animals received their first dose on the morning of Day 21. Hind limbs were collected following euthanasia, with the left limb being used for H&E staining.
# All data measured and recorded was analyzed using SPSS 16.0 software. Groups were compared using one-way ANOVA and significance was set at p<0.05.
# Arthritis was induced in Lewis rats by immunizing animals with the CFA+Collagen emulsion via subcutaneous injection at the base of the tail on day 0. Seven days after the first immunization, animals received a booster immunization with the IFA+Collagen emulsion via subcutaneous injection at the base of the tail.
# Starting on day 0, animals in group 1 and 2 were administered daily doses of the vehicle per os (P.O.) for 21 days. […] The twice daily doses for animals in groups 4-9 were 8 hours apart (e.g., the first dose at 8:00 AM and the second dose at 4:00 PM).
structure (smiles),measurement,setting,value
"CNC(=O)c1[nH]c(C(=O)NC2CCC2)cc1O[C@@H](C)c1ccccc1 [Example 101, N^5-cyclobutyl-N^2-methyl-3-(1-phenylethoxy)-1H-pyrrole-2,5-dicarboxamide]",Average animal body weight percent change,"Day 12, CIA + 30 mg/kg",0.66%
same,Mean animal body weight,"Day 12, CIA + 30 mg/kg",163 g
same,Average animal body weight percent change,"Day 13, CIA + 3 mg/kg",7.74%
same,Mean animal body weight,"Day 13, CIA + 3 mg/kg",178 g
same,Average animal body weight percent change,"Day 13, CIA + 10 mg/kg",3.92%
same,Mean animal body weight,"Day 13, CIA + 10 mg/kg",169 g
same,Average animal body weight percent change,"Day 13, CIA + 30 mg/kg",0.18%
same,Mean animal body weight,"Day 13, CIA + 30 mg/kg",162 g
same,Average animal body weight percent change,"Day 14, CIA + 3 mg/kg",7.08%
same,Mean animal body weight,"Day 14, CIA + 3 mg/kg",177 g
same,Average animal body weight percent change,"Day 14, CIA + 10 mg/kg",4.05%
same,Mean animal body weight,"Day 14, CIA + 10 mg/kg",169 g
same,Average animal body weight percent change,"Day 14, CIA + 30 mg/kg",1.42%
same,Mean animal body weight,"Day 14, CIA + 30 mg/kg",164 g
same,Average animal body weight percent change,"Day 15, CIA + 3 mg/kg",5.15%
same,Mean animal body weight,"Day 15, CIA + 3 mg/kg",173 g
same,Average animal body weight percent change,"Day 15, CIA + 10 mg/kg",3.31%
same,Mean animal body weight,"Day 15, CIA + 10 mg/kg",168 g
same,Average animal body weight percent change,"Day 15, CIA + 30 mg/kg",2.38%
same,Mean animal body weight,"Day 15, CIA + 30 mg/kg",166 g
same,Average animal body weight percent change,"Day 16, CIA + 3 mg/kg",3.90%
same,Mean animal body weight,"Day 16, CIA + 3 mg/kg",171 g
same,Average animal body weight percent change,"Day 16, CIA + 10 mg/kg",2.23%
same,Mean animal body weight,"Day 16, CIA + 10 mg/kg",166 g
same,Average animal body weight percent change,"Day 16, CIA + 30 mg/kg",1.69%
same,Mean animal body weight,"Day 16, CIA + 30 mg/kg",165 g
same,Average animal body weight percent change,"Day 17, CIA + 3 mg/kg",3.37%
same,Mean animal body weight,"Day 17, CIA + 3 mg/kg",170 g
same,Average animal body weight percent change,"Day 17, CIA + 10 mg/kg",2.29%
same,Mean animal body weight,"Day 17, CIA + 10 mg/kg",166 g
same,Average animal body weight percent change,"Day 17, CIA + 30 mg/kg",1.41%
same,Mean animal body weight,"Day 17, CIA + 30 mg/kg",164 g
same,Average animal body weight percent change,"Day 18, CIA + 3 mg/kg",2.36%
same,Mean animal body weight,"Day 18, CIA + 3 mg/kg",169 g
same,Average animal body weight percent change,"Day 18, CIA + 10 mg/kg",1.38%
same,Mean animal body weight,"Day 18, CIA + 10 mg/kg",165 g
same,Average animal body weight percent change,"Day 18, CIA + 30 mg/kg",1.61%
same,Mean animal body weight,"Day 18, CIA + 30 mg/kg",165 g
same,Average animal body weight percent change,"Day 19, CIA + 3 mg/kg",0.91%
same,Mean animal body weight,"Day 19, CIA + 3 mg/kg",166 g
same,Average animal body weight percent change,"Day 19, CIA + 10 mg/kg",0.76%
same,Mean animal body weight,"Day 19, CIA + 10 mg/kg",164 g
same,Average animal body weight percent change,"Day 19, CIA + 30 mg/kg",1.24%
same,Mean animal body weight,"Day 19, CIA + 30 mg/kg",164 g
same,Average animal body weight percent change,"Day 20, CIA + 3 mg/kg",1.13%
same,Mean animal body weight,"Day 20, CIA + 3 mg/kg",167 g
same,Average animal body weight percent change,"Day 20, CIA + 10 mg/kg",1.30%
same,Mean animal body weight,"Day 20, CIA + 10 mg/kg",164 g
same,Average animal body weight percent change,"Day 20, CIA + 30 mg/kg",0.50%
same,Mean animal body weight,"Day 20, CIA + 30 mg/kg",163 g
same,Average animal body weight percent change,"Day 21, CIA + 3 mg/kg",1.73%
same,Mean animal body weight,"Day 21, CIA + 3 mg/kg",168 g
same,Average animal body weight percent change,"Day 21, CIA + 10 mg/kg",0.53%
same,Mean animal body weight,"Day 21, CIA + 10 mg/kg",163 g
same,Average animal body weight percent change,"Day 21, CIA + 30 mg/kg",0.50%
same,Mean animal body weight,"Day 21, CIA + 30 mg/kg",163 g
same,Animal body weight percent change,"Day 0, individual animals",0.00%
same,Animal body weight,[1],170 g
same,Animal body weight percent change,[1],−0.58% and 0.65%
same,Animal body weight percent change,"Day 2, individual animals, 3 mg/kg",0.62% and 0.56% and −1.20%
same,Animal body weight,[2],160 g and 170 g
same,Animal body weight percent change,[2],−0.62% and −1.13% and −0.60%
same,Animal body weight,"Day 4, individual animals, 3 mg/kg",170 g
same,Animal body weight percent change,"Day 5, individual animals, 3 mg/kg",0.00%
same,Animal body weight,"Day 6, individual animals, 3 mg/kg",180 g and 160 g
same,Animal body weight,[3],160 g and 180 g
same,Animal body weight percent change,[3],0.63%
same,Animal body weight,"Day 8, individual animals, 3 mg/kg",160 g
same,Animal body weight,"Day 9, individual animals, 3 mg/kg",170 g
same,Animal body weight percent change,"Day 10, individual animals, 3 mg/kg",9.70%
same,Animal body weight,"Day 11, individual animals, 3 mg/kg",180 g
